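Values below derive from 48-hour exposures of cells grown in 96-well plates, with endpoints linearly interpolated between the two concentrations bracketing the appropriate inhibition level. The concentration for 50% growth inhibition is given as GI50. TGI: concentration producing complete growth inhibition.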
Columns and labels:
Assay in all cases: DTP human tumour cell line panel, 48 h
ACHN renal = test system: ACHN renal
DU-145 prostate = test system: DU-145 prostate
HCT-116 colon = test system: HCT-116 colon
HT29 colon = test system: HT29 colon
MALME-3M melanoma = test system: MALME-3M melanoma
NCI/ADR-RES ovarian = test system: NCI/ADR-RES ovarian
OVCAR-4 ovarian = test system: OVCAR-4 ovarian
PC-3 prostate = test system: PC-3 prostate
SF-539 CNS = test system: SF-539 CNS
SK-MEL-2 melanoma = test system: SK-MEL-2 melanoma

Row | SMILES | GI50 (ACHN renal) | TGI (ACHN renal) | GI50 (DU-145 prostate) | TGI (DU-145 prostate) | GI50 (HCT-116 colon) | TGI (HCT-116 colon) | GI50 (HT29 colon) | TGI (HT29 colon) | GI50 (MALME-3M melanoma) | TGI (MALME-3M melanoma) | GI50 (NCI/ADR-RES ovarian) | TGI (NCI/ADR-RES ovarian) | GI50 (OVCAR-4 ovarian) | TGI (OVCAR-4 ovarian) | GI50 (PC-3 prostate) | TGI (PC-3 prostate) | GI50 (SF-539 CNS) | TGI (SF-539 CNS) | GI50 (SK-MEL-2 melanoma) | TGI (SK-MEL-2 melanoma)
1 | COc1ccc(-c2ccc(OC)c(OC)c2OC)cc1 | 8 µM | > 100 µM | 2.83 µM | 19.3 µM | 1.13 µM | 32.6 µM | 0.529 µM | > 100 µM | 9.53 µM | > 100 µM | 0.529 µM | 5.38 µM | 5.42 µM | > 100 µM | 3.62 µM | > 100 µM | 1.24 µM | 5.31 µM | 3.8 µM | > 100 µM
2 | CC1CCC2C(C)C(=O)OC2C2(C)C(=O)C=CC12 (stereo unspecified) | – | > 10 µM | – | > 10 µM | – | > 10 µM | – | > 10 µM | – | – | – | > 10 µM | – | > 10 µM | – | > 10 µM | – | > 10 µM | – | > 10 µM
3 | Cn1c(COC(=O)NCCc2ccccn2)nc2c(N3CCOCC3)nc(Cl)nc21 | 1.27 µM | 2.57 µM | 1.59 µM | 3.11 µM | 0.847 µM | 2.25 µM | 1.17 µM | 3.17 µM | 1.77 µM | 3.38 µM | 2.62 µM | 8.49 µM | 1.62 µM | 3.63 µM | 1.64 µM | 3.56 µM | 1.48 µM | 2.84 µM | 1.88 µM | 3.81 µM
4 | CC(C)(C)C[C@H]1N[C@@H](C(=O)NC2CCC(O)CC2)[C@H](c2cccc(Cl)c2F)[C@@]12C(=O)Nc1cc(Cl)ccc12 (stereo partly specified) | 0.375 µM | 10.1 µM | 11.8 µM | 24.3 µM | 0.41 µM | 11.9 µM | 4.34 µM | 19.9 µM | 0.131 µM | 3.98 µM | 14 µM | 33.9 µM | 5.6 µM | 18.7 µM | 3.65 µM | 13.5 µM | 3.12 µM | 11.5 µM | 4.93 µM | 19.7 µM
5 | Cc1ccc(/C(=N/Nc2ccc([N+](=O)[O-])cc2)Sc2cc(Cl)c(C)cc2S(N)(=O)=O)cc1 | 2.37 µM | 6.51 µM | 1.75 µM | 4.1 µM | 1.13 µM | 2.34 µM | 1.31 µM | 3.12 µM | 1.91 µM | 4.58 µM | 2.03 µM | 4.91 µM | 1.28 µM | 3.75 µM | 1.79 µM | 4.47 µM | 1.1 µM | 2.97 µM | 4.9 µM | 20 µM
6 | CC1(C)CC(C)(C)c2cc(NC(=S)Nc3ccc([N+](=O)[O-])cc3)ccc2S1 | 10.1 µM | 24.6 µM | 13.1 µM | 34.6 µM | 14.9 µM | > 100 µM | 24.1 µM | > 100 µM | 2.62 µM | 10.1 µM | 13.9 µM | 48.2 µM | 14.8 µM | 60.4 µM | 9.69 µM | 22.4 µM | 10.8 µM | 22.7 µM | 10.5 µM | 23.1 µM
7 | CCCCCCCC(=O)OCC/C=C/C1OC1C1OC(=O)/C=C\C=C\C(=O)N(C(C)=O)C(=O)/C=C(/C)CCC2OC2C1OC(=O)NC(C)=O (stereo unspecified) | 2.14 µM | 9.94 µM | 4.45 µM | 16.2 µM | 1.8 µM | 4.97 µM | 4.03 µM | 14.4 µM | > 25 µM | > 25 µM | > 25 µM | > 25 µM | 7.37 µM | > 25 µM | 3.15 µM | 8.04 µM | 3.68 µM | 7.36 µM | 6.46 µM | 20.4 µM
8 | Cc1cccc(C2NC(=O)c3ccccc3N2)c1 (stereo unspecified) | – | > 100 µM | – | > 100 µM | – | > 100 µM | – | > 26.3 µM | – | > 100 µM | – | > 47.2 µM | – | > 100 µM | – | > 100 µM | – | 9.07 µM | – | > 42.8 µM
9 | O=S(=O)(NC1=NCCN1C(=S)SN1CCn2c1nsc2=S)c1ccc(Cl)cc1 | 6.05 µM | 18.6 µM | 7.9 µM | 30.9 µM | 5.15 µM | 21.1 µM | 7.34 µM | > 100 µM | 4.75 µM | 18.1 µM | 23.1 µM | 60.8 µM | 9.6 µM | 44.2 µM | 7.54 µM | 22.1 µM | 1.47 µM | 3.12 µM | 5.93 µM | 22.7 µM
10 | COC1=CC(c2ccc[nH]2)=N/C1=C\c1[nH]c(C)c(C(=O)CCCCCCCCC(=O)O[C@H]2CC[C@H]3C4CCc5cc(O)ccc5C4CC[C@]23C)c1C (stereo partly specified) | 1.16 µM | > 50 µM | 0.387 µM | > 50 µM | 0.159 µM | > 22.1 µM | 0.21 µM | > 50 µM | 2.49 µM | > 36.3 µM | 25.9 µM | > 50 µM | 0.343 µM | > 50 µM | 0.327 µM | > 50 µM | 0.46 µM | > 50 µM | 0.247 µM | 1.95 µM
11 | O=c1[nH]c(C2CCCN2)nc2c1oc1ccc(Cl)cc12 (stereo unspecified) | > 100 µM | > 100 µM | > 100 µM | > 100 µM | > 90.7 µM | > 100 µM | > 100 µM | > 100 µM | 46.3 µM | > 100 µM | > 100 µM | > 100 µM | > 39.1 µM | > 100 µM | > 100 µM | > 100 µM | 36.9 µM | > 100 µM | > 100 µM | > 100 µM
12 | CCN(CC)C(=S)SSC(C)C | 17.2 µM | 33.3 µM | 17.1 µM | 35.2 µM | – | – | 14.8 µM | 29.8 µM | 13.7 µM | 30 µM | 16 µM | 35.7 µM | 13.4 µM | 26.2 µM | 14.1 µM | 29.2 µM | 18.4 µM | 42.9 µM | 23.3 µM | 62 µM
13 | NCCO/C=C/C(N)C(=O)O (stereo unspecified) | – | > 100 µM | – | > 100 µM | – | > 100 µM | – | > 100 µM | – | – | – | > 100 µM | – | > 100 µM | – | > 100 µM | – | > 100 µM | – | > 100 µM
